Experimental data published in US20080248511A1, “METHODS TO QUENCH LIGHT FROM OPTICAL REACTIONS” (priority 2007, published 2008).

Assays:
[1] = molecular target: firefly luciferase (Photinus pyralis, UniProt P08659); assay: Non-detergent compound screen, firefly luciferase (Example 6); type: biochemical; settings: 0.5% Tergitol NP-9, 0.03% BDDABr, read-out: Retained Firefly Luciferase Value (%); for remaining activity at 23 µM: inhibitor 23 μM; for remaining activity at 153 µM: inhibitor 153 μM; for remaining activity at 1000 µM: inhibitor 1000 μM; for remaining activity at 10 µM: inhibitor 10 μM; for remaining activity at 100 µM: inhibitor 100 μM
firefly luciferase, sequence (P08659 whole entry): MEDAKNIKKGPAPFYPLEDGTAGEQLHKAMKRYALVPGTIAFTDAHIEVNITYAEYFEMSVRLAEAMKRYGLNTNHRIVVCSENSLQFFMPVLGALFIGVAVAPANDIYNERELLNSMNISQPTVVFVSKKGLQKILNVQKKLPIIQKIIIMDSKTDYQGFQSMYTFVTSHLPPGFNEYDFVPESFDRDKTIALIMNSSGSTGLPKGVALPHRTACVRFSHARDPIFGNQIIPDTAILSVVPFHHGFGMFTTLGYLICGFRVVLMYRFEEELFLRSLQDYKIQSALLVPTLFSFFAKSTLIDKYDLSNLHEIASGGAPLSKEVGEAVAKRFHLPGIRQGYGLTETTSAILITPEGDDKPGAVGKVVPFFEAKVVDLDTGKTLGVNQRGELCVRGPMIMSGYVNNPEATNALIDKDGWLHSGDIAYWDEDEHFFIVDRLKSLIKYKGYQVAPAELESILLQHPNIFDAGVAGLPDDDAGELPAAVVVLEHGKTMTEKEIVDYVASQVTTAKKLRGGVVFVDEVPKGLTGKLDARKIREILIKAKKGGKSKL
Experimental: (§1) Each compound was diluted into 200 mM MOPS pH 6.7, 4 μM MgSO4, 1 mM CDTA, 0.5% Tergitol NP-9, 0.05% Mazu-DF-204, 0.03% BDDABr, 30 mM thiourea, 1 mM bis-(2-mercaptoethylsulfone) (BMS), 4 μM CoA, and 1 μM 5-fluoroluciferin. Just prior to the luciferase reaction, 0.1% Prionex® (Pentapharm) and 2.9 μM coelenterazine-h (Promega) were added to each solution.
(§2) The firefly luciferase and Renilla luciferase enzymes were diluted as described in Examples 3 and 5. The luciferase reactions were initiated by adding 50 μl of the firefly luciferase and Renilla luciferase enzyme solution to 50 μl of reagent solution. The reactions were performed as described above. The retained Renilla and firefly luciferase-mediated luminescence and selectivity values for each inhibitor tested are listed in Table 6.

[2] = molecular target: T1, Renilla luciferase (Renilla reniformis, UniProt P27652); assay: Non-detergent compound screen, Renilla luciferase (Example 6); type: biochemical; settings: for remaining activity at 23 µM / remaining activity at 153 µM / remaining activity at 1000 µM / remaining activity at 10 µM / remaining activity at 100 µM: 0.5% Tergitol NP-9, 0.03% BDDABr, read-out: Retained Renilla Luciferase Value (%)
T1 sequence (P27652 1-311): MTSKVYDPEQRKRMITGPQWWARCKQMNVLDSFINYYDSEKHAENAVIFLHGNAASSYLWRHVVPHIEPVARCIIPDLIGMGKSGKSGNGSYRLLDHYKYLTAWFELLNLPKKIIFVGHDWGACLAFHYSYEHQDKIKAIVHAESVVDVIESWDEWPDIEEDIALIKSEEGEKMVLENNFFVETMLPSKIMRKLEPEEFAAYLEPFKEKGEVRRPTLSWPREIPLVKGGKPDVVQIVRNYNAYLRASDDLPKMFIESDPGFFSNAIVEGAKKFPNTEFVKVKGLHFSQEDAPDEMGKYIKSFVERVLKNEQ
Experimental: as §1, §2

Row | Compound | remaining activity at 23 µM [1] | remaining activity at 153 µM [1] | remaining activity at 1000 µM [1] | inhibitor of Renilla luciferase, grade in words [2] | Selectivity Value ([2]; inhibitor 23 μM) | remaining activity at 23 µM ([2]; inhibitor 23 μM) | Selectivity Value ([2]; inhibitor 153 μM) | remaining activity at 153 µM ([2]; inhibitor 153 μM) | Selectivity Value ([2]; inhibitor 1000 μM) | remaining activity at 1000 µM ([2]; inhibitor 1000 μM) | remaining activity at 10 µM [1] | remaining activity at 100 µM [1] | Selectivity Value ([2]; inhibitor 10 μM) | remaining activity at 10 µM ([2]; inhibitor 10 μM) | Selectivity Value ([2]; inhibitor 100 μM) | remaining activity at 100 µM ([2]; inhibitor 100 μM)
1 | COc1ccc(CNC(=O)COc2ccc3[nH]cc(CCN(C)C)c3c2)cc1 [Compound 3031, 2-(3-(2-(dimethylamino)ethyl)-1H-indol-5-yloxy)-N-(4-methoxybenzyl)acetamide] | 96% | 89% | 89% | suitable inhibitors of Renilla luciferase | 1 | 96% | 0.99 | 90% | 1.4 | 66.5% | – | – | – | – | – | –
2 | CN(C)CCc1c[nH]c2ccc(/C=C/C(=O)NCc3ccc(N(C)C)cc3)cc12 [Compound 3043, (E)-N-(4-(dimethylamino)benzyl)-3-(3-(2-(dimethylamino)ethyl)-1H-indol-5-yl)acrylamide] | – | – | – | excellent inhibitors of Renilla luciferase | – | – | – | – | – | – | – | – | – | – | – | –
3 | COc1ccc(CNC(=O)/C(C#N)=C/c2ccc3[nH]cc(CCN(C)C)c3c2)cc1 [Compound 3044, (E)-2-cyano-3-(3-(2-(dimethylamino)ethyl)-1H-indol-5-yl)-N-(4-methoxybenzyl)acrylamide] | – | – | 132% | inhibitors of Renilla luciferase | – | – | – | – | 18.9 | 7.6% | 99% | 100% | 1.2 | 85% | 2.8 | 36%
4 | COc1ccc(COC(=O)/C=C/c2ccc3[nH]cc(CCN(C)C)c3c2)cc1 [Compound 3045, (E)-4-methoxybenzyl 3-(3-(2-(dimethylamino)ethyl)-1H-indol-5-yl)acrylate] | 100% | 100% | 98% | suitable inhibitors of Renilla luciferase | 1.0 | 97% | 1.0 | 98% | 1.3 | 74.7% | – | – | – | – | – | –
5 | COc1ccc(CNC(=O)/C=C/c2ccc3ncccc3c2)cc1 [Compound 3046, (E)-N-(4-methoxybenzyl)-3-(quinolin-6-yl)acrylamide] | – | – | 83% | inhibitors of Renilla luciferase | – | – | – | – | 3.4 | 24.5% | 100% | 99% | 1.0 | 96% | 1.3 | 78%
6 | COc1ccc(CNC(=O)/C=C/c2ccc3c(c2)c(CCN(C)C)cn3C)cc1 [Compound 3049, (E)-3-(3-(2-(dimethylamino)ethyl)-1-methyl-1H-indol-5-yl)-N-(4-methoxybenzyl)acrylamide] | – | – | – | excellent inhibitors of Renilla luciferase | – | – | – | – | – | – | – | – | – | – | – | –
7 | CCCCCCNC(=O)/C=C/c1ccc2[nH]cc(CCN(C)C)c2c1 [Compound 3050, (E)-3-(3-(2-(dimethylamino)ethyl)-1H-indol-5-yl)-N-hexylacrylamide] | 102% | 102% | 102% | suitable inhibitors of Renilla luciferase | 1.1 | 93% | 1.0 | 99% | 1.9 | 55% | – | – | – | – | – | –
8 | COc1ccc(CNC(=O)/C=C/c2ccc3[nH]cc(CCN(C)C)c3c2)c(OC)c1 [Compound 3051, (E)-N-(2,4-dimethoxybenzyl)-3-(3-(2-(dimethylamino)ethyl)-1H-indol-5-yl)acrylamide] | – | – | 102% | excellent inhibitors of Renilla luciferase | – | – | – | – | 53.7 | 1.9% | 102% | 102% | 1.9 | 55% | 7.3 | 14%
9 | C=C(C(=O)NCc1ccc(OC)cc1)c1ccc2ncccc2c1 [Compound 3053, N-(4-methoxybenzyl)-2-(quinolin-6-yl)acrylamide] | 100% | 97% | 91% | suitable inhibitors of Renilla luciferase | 1.1 | 95% | 1.1 | 90% | 1.1 | 84.7% | – | – | – | – | – | –
10 | C=C(C(=O)NCc1ccc(OC)cc1)c1ccc2[nH]ccc2c1 [Compound 3054, 2-(1H-indol-5-yl)-N-(4-methoxybenzyl)acrylamide] | 101% | 102% | 101% | suitable inhibitors of Renilla luciferase | 1.1 | 95% | 1.1 | 95% | 1.1 | 93.3% | – | – | – | – | – | –
11 | COc1ccc(CNC(=O)/C=C/c2ccc3c(c2)c(CCN(C)C)cn3Cc2ccccc2)cc1 [Compound 3055, (E)-3-(1-benzyl-3-(2-(dimethylamino)ethyl)-1H-indol-5-yl)-N-(4-methoxybenzyl)acrylamide] | – | – | 99% | inhibitors of Renilla luciferase | – | – | – | – | 5.0 | 20% | 100% | 98% | 1.2 | 85% | 2.2 | 44%
12 | COc1ccc(CNC(=O)/C=C/c2ccc3[nH]ccc3c2)cc1 [Compound 3056, (E)-3-(1H-indol-5-yl)-N-(4-methoxybenzyl)acrylamide] | – | – | 89% | inhibitors of Renilla luciferase | – | – | – | – | 2.7 | 32.6% | 101% | 100% | 1.1 | 93% | 1.3 | 79%
13 | COc1ccc(CNC(=O)/C=C/c2ccc3oc(=O)cc(C)c3c2)cc1 [Compound 3057, (E)-N-(4-methoxybenzyl)-3-(4-methyl-2-oxo-2H-chromen-6-yl)acrylamide] | 100% | 98% | 102% | suitable inhibitors of Renilla luciferase | 1 | 100% | 1.1 | 93% | 1.3 | 77.5% | – | – | – | – | – | –
14 | C=C(C(=O)NCc1ccc(OC)cc1)c1ccc2oc(=O)cc(C)c2c1 [Compound 3058, N-(4-methoxybenzyl)-2-(4-methyl-2-oxo-2H-chromen-6-yl)acrylamide] | 101% | 102% | 103% | suitable inhibitors of Renilla luciferase | 1.05 | 96% | 1.04 | 98% | 1.04 | 98.8% | – | – | – | – | – | –
15 | COc1ccc(CNC(=O)/C(C#N)=C/CCCCCCCBr)cc1 [Compound 3059, (E)-10-bromo-2-cyano-N-(4-methoxybenzyl)dec-2-enamide] | 101% | 101% | 101% | suitable inhibitors of Renilla luciferase | 1.02 | 99% | 1.05 | 96% | 1.07 | 94.6% | – | – | – | – | – | –
